Source: PubChem BioAssay AID1963962 (Molecular Pharmacology Branch, DTP, NCI, 2024)

Tested on: 967376-340-R-J2-PDC multicell spheroid viability
Experiment: Anticancer human tumor 967376-340-R-J2-PDC patient-derived colon adenocarcinoma cell line growth inhibition [PI3K]
Conditions: for IC50: curve of first compound; for viability, T/C: stronger effect = lower value
How it was run: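 Tumor cells grown as multi-cell spheroids with HUVEC endothelial cells and MSC fibroblast-like stroma were treated with targeted agents combined with inavolisib, alpelisib, duvelisib or copanlisib. Doses fell in half-log steps from near clinical Cmax, else from 10 microM. Viability was measured.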

[1] = second compound 0.00316 µM, first compound 0.0316 µM
[2] = second compound 0.00316 µM, first compound 0.1 µM
[3] = second compound 0.00316 µM, first compound 0.316 µM
[4] = second compound 0.00316 µM, first compound 1 µM
[5] = second compound 0.00316 µM, first compound 3.16 µM
[6] = second compound 0.00316 µM, first compound 10 µM
[7] = second compound 0.01 µM, first compound 0.0316 µM
[8] = second compound 0.01 µM, first compound 0.1 µM
[9] = second compound 0.01 µM, first compound 0.316 µM
[10] = second compound 0.01 µM, first compound 1 µM
[11] = second compound 0.01 µM, first compound 3.16 µM
[12] = second compound 0.01 µM, first compound 10 µM
[13] = second compound 0.0316 µM, first compound 0.0316 µM
[14] = second compound 0.0316 µM, first compound 0.1 µM
[15] = second compound 0.0316 µM, first compound 0.316 µM
[16] = second compound 0.0316 µM, first compound 1 µM
[17] = second compound 0.0316 µM, first compound 3.16 µM
[18] = second compound 0.0316 µM, first compound 10 µM
[19] = second compound 0.1 µM, first compound 0.0316 µM
[20] = second compound 0.1 µM, first compound 0.1 µM
[21] = second compound 0.1 µM, first compound 0.316 µM
[22] = second compound 0.1 µM, first compound 1 µM
[23] = second compound 0.1 µM, first compound 3.16 µM
[24] = second compound 0.1 µM, first compound 10 µM
[25] = second compound 0.316 µM, first compound 0.0316 µM
[26] = second compound 0.316 µM, first compound 0.1 µM
[27] = second compound 0.316 µM, first compound 0.316 µM
[28] = second compound 0.316 µM, first compound 1 µM
[29] = second compound 0.316 µM, first compound 3.16 µM
[30] = second compound 0.316 µM, first compound 10 µM
[31] = second compound 1 µM, first compound 0.0316 µM
[32] = second compound 1 µM, first compound 0.1 µM
[33] = second compound 1 µM, first compound 0.316 µM
[34] = second compound 1 µM, first compound 1 µM
[35] = second compound 1 µM, first compound 3.16 µM
[36] = second compound 1 µM, first compound 10 µM
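Note: spheroids exposed to agents for 7 days before read-out.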
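Throughout, for viability, T/C: luminescence used as surrogate of cell viability.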

C#Cc1c(F)ccc2cc(O)cc(-c3ncc4c(N5CC6CCC(C5)N6)nc(OCC56CCCN5CC(F)C6)nc4c3F)c12 (stereo unspecified) + CC(Nc1ccc2c(c1)OCCn1cc(N3C(=O)OCC3C(F)F)nc1-2)C(N)=O
IC50 (second compound 0.00316 µM): > 10 µM
IC50 (second compound 0.01 µM): > 10 µM
IC50 (second compound 0.0316 µM): > 10 µM
IC50 (second compound 0.1 µM): > 10 µM
IC50 (second compound 0.316 µM): > 10 µM
IC50 (second compound 1 µM): 2.26 µM
viability, T/C [1]: 115%
viability, T/C [2]: 99.1%
viability, T/C [3]: 72.3%
viability, T/C [4]: 68.5%
viability, T/C [5]: 94.5%
viability, T/C [6]: 65.7%
viability, T/C [7]: 81.8%
viability, T/C [8]: 86%
viability, T/C [9]: 78.7%
viability, T/C [10]: 87.5%
viability, T/C [11]: 97.7%
viability, T/C [12]: 59.6%
viability, T/C [13]: 78.5%
viability, T/C [14]: 105%
viability, T/C [15]: 71.6%
viability, T/C [16]: 62.3%
viability, T/C [17]: 98.7%
viability, T/C [18]: 56.6%
viability, T/C [19]: 79.7%
viability, T/C [20]: 82%
viability, T/C [21]: 86.6%
viability, T/C [22]: 70.7%
viability, T/C [23]: 62%
viability, T/C [24]: 58.6%
viability, T/C [25]: 55.1%
viability, T/C [26]: 73.9%
viability, T/C [27]: 63.8%
viability, T/C [28]: 60.7%
viability, T/C [29]: 67.6%
viability, T/C [30]: 45.5%
viability, T/C [31]: 62.7%
viability, T/C [32]: 58.6%
viability, T/C [33]: 57.4%
viability, T/C [34]: 56.3%
viability, T/C [35]: 47.8%
viability, T/C [36]: 32.9%

CC1(C)CCC(Nc2ncc(C(F)(F)F)c(-c3c[nH]c4c(P(C)(C)=O)c(C#N)ccc34)n2)CN1 (stereo unspecified) + CC(Nc1ccc2c(c1)OCCn1cc(N3C(=O)OCC3C(F)F)nc1-2)C(N)=O
IC50 (second compound 0.00316 µM): 6.69 µM
IC50 (second compound 0.01 µM): > 10 µM
IC50 (second compound 0.0316 µM): 6.64 µM
IC50 (second compound 0.1 µM): 2.27 µM
IC50 (second compound 0.316 µM): 3.65 µM
IC50 (second compound 1 µM): 0.277 µM
viability, T/C [1]: 92.7%
viability, T/C [2]: 69.1%
viability, T/C [3]: 68%
viability, T/C [4]: 64.7%
viability, T/C [5]: 57.6%
viability, T/C [6]: 44.3%
viability, T/C [7]: 79%
viability, T/C [8]: 88.1%
viability, T/C [9]: 64.8%
viability, T/C [10]: 53.2%
viability, T/C [11]: 59.6%
viability, T/C [12]: 49%
viability, T/C [13]: 58.4%
viability, T/C [14]: 76.8%
viability, T/C [15]: 63.3%
viability, T/C [16]: 66.2%
viability, T/C [17]: 54.1%
viability, T/C [18]: 46.7%
viability, T/C [19]: 58.5%
viability, T/C [20]: 74.1%
viability, T/C [21]: 69.7%
viability, T/C [22]: 54%
viability, T/C [23]: 48.1%
viability, T/C [24]: 25.6%
viability, T/C [25]: 56.3%
viability, T/C [26]: 67.3%
viability, T/C [27]: 56.9%
viability, T/C [28]: 52.9%
viability, T/C [29]: 54.9%
viability, T/C [30]: 24.8%
viability, T/C [31]: 53.6%
viability, T/C [32]: 53.4%
viability, T/C [33]: 43.5%
viability, T/C [34]: 50.7%
viability, T/C [35]: 36.1%
viability, T/C [36]: 24.6%

Cn1cnc2c(F)c(Nc3ccc(Br)cc3Cl)c(C(=O)NOCCO)cc21 + CC(Nc1ncnc2nc[nH]c12)c1cc2cccc(Cl)c2c(=O)n1-c1ccccc1
IC50 (second compound 0.0316 µM): 1.46 µM
IC50 (second compound 0.1 µM): 2.11 µM
IC50 (second compound 0.316 µM): 1.92 µM
IC50 (second compound 1 µM): 1.33 µM
IC50 (second compound 3.16 µM): 1.34 µM
IC50 (second compound 10 µM): 0.666 µM
viability, T/C (second compound 0.0316 µM, first compound 0.00949 µM): 73.5%
viability, T/C (second compound 0.0316 µM, first compound 0.03 µM): 112%
viability, T/C (second compound 0.0316 µM, first compound 0.0949 µM): 95.4%
viability, T/C (second compound 0.0316 µM, first compound 0.3 µM): 75.5%
viability, T/C (second compound 0.0316 µM, first compound 0.949 µM): 61.4%
viability, T/C (second compound 0.0316 µM, first compound 3 µM): 34.5%
viability, T/C (second compound 0.1 µM, first compound 0.00949 µM): 106%
viability, T/C (second compound 0.1 µM, first compound 0.03 µM): 107%
viability, T/C (second compound 0.1 µM, first compound 0.0949 µM): 87.5%
viability, T/C (second compound 0.1 µM, first compound 0.3 µM): 102%
viability, T/C (second compound 0.1 µM, first compound 0.949 µM): 74.7%
viability, T/C (second compound 0.1 µM, first compound 3 µM): 38.5%
viability, T/C (second compound 0.316 µM, first compound 0.00949 µM): 78.8%
viability, T/C (second compound 0.316 µM, first compound 0.03 µM): 104%
viability, T/C (second compound 0.316 µM, first compound 0.0949 µM): 97.9%
viability, T/C (second compound 0.316 µM, first compound 0.3 µM): 78.3%
viability, T/C (second compound 0.316 µM, first compound 0.949 µM): 61.9%
viability, T/C (second compound 0.316 µM, first compound 3 µM): 43%
viability, T/C (second compound 1 µM, first compound 0.00949 µM): 97.1%
viability, T/C (second compound 1 µM, first compound 0.03 µM): 97.4%
viability, T/C (second compound 1 µM, first compound 0.0949 µM): 90.1%
viability, T/C (second compound 1 µM, first compound 0.3 µM): 78.1%
viability, T/C (second compound 1 µM, first compound 0.949 µM): 64.5%
viability, T/C (second compound 1 µM, first compound 3 µM): 21.1%
viability, T/C (second compound 3.16 µM, first compound 0.00949 µM): 82%
viability, T/C (second compound 3.16 µM, first compound 0.03 µM): 83.6%
viability, T/C (second compound 3.16 µM, first compound 0.0949 µM): 70.7%
viability, T/C (second compound 3.16 µM, first compound 0.3 µM): 97%
viability, T/C (second compound 3.16 µM, first compound 0.949 µM): 61.6%
viability, T/C (second compound 3.16 µM, first compound 3 µM): 22.6%
viability, T/C (second compound 10 µM, first compound 0.00949 µM): 78.4%
viability, T/C (second compound 10 µM, first compound 0.03 µM): 64.3%
viability, T/C (second compound 10 µM, first compound 0.0949 µM): 69.2%
viability, T/C (second compound 10 µM, first compound 0.3 µM): 66%
viability, T/C (second compound 10 µM, first compound 0.949 µM): 43.1%
viability, T/C (second compound 10 µM, first compound 3 µM): 13.7%
